Results as given in patent publication US10472358B2, “1H-pyrrolo[2,3-c]pyridin-7(6H)-ones and pyrazolo[3,4-c]pyridin-7(6H)-ones as inhibitors of BET proteins” (Incyte Corporation, priority 2014, dated 2019).

The compounds below were run on KMS.12.BM cells (assay: KMS.12.BM cell viability assay (Cell Titer-GLO, ATP quantitation)). Details: KMS-12-BM, 72 h; human myeloma cells, 3 days, concentration required for 50% cell death.
Format: cell-based
Protocol: Example B1: KMS.12.BM Cell Viability Assay
KMS.12.BM cell line (human myeloma) was purchased from JCRB (Osaka, Japan) and maintained in RPMI with 10% FBS culture medium. To measure the cytotoxic activity of the compounds through ATP quantitation, the KMS.12.BM cells are plated in the RPMI culture medium at 5000 cells/well/per 100 μL into a 96-well polystyrene clear black tissue culture plate (Greiner-bio-one through VWR, NJ), in the presence or absence of a concentration range of test compounds. After 3 days, […] Cell Titer-GLO Luminescent (Promega, Madison, Wis.) cell culture agent is added to each well for 10 minutes at room temperature to stabilize the luminescent signal. This determines the number of viable cells in culture based on quantitation of the ATP present, which signals the presence of metabolically active cells. Luminescence is measured with the Top Count 384 (Packard Bioscience through Perkin Elmer, Boston, Mass.). Compound inhibition is determined relative to cells cultured with no drug and the IC50 is reported as the compound concentration required for 50% cell death.

Compound | IC50
CCN1C(=O)C(C(C)C)Oc2c(-c3cn(C)c(=O)c4[nH]ccc34)cc(S(C)(=O)=O)cc21 (stereo not shown) [Example 54, 4-ethyl-2-isopropyl-8-(6-methyl-7-oxo-6,7-dihydro-1H-pyrrolo[2,3-c]pyridin-4-yl)-6-(methylsulfonyl)-2H-1,4-benzoxazin-3(4H)-one] | ≤ 1000 nM
CCS(=O)(=O)c1cc(-c2cn(C)c(=O)c3[nH]ccc23)c2c(c1)N(C)C(=O)C(C(C)C)O2 (stereo not shown) [Example 55, 6-(ethylsulfonyl)-2-isopropyl-4-methyl-8-(6-methyl-7-oxo-6,7-dihydro-1H-pyrrolo[2,3-c]pyridin-4-yl)-2H-1,4-benzoxazin-3(4H)-one] | ≤ 1000 nM
CC(C)C1Oc2c(-c3cn(C)c(=O)c4[nH]ccc34)cc(S(=O)(=O)C(C)C)cc2N(C)C1=O (stereo not shown) [Example 56, 2-isopropyl-6-(isopropylsulfonyl)-4-methyl-8-(6-methyl-7-oxo-6,7-dihydro-1H-pyrrolo[2,3-c]pyridin-4-yl)-2H-1,4-benzoxazin-3(4H)-one] | ≤ 1000 nM
Cn1cc(-c2cc(S(C)(=O)=O)cc3c2OC2(CC2)C(=O)N3)c2cc[nH]c2c1=O [Example 57, 8-(6-methyl-7-oxo-6,7-dihydro-1H-pyrrolo[2,3-c]pyridin-4-yl)-6-(methylsulfonyl)spiro[1,4-benzoxazine-2,1′-cyclopropan]-3(4H)-one] | ≤ 1000 nM
Cn1cc(-c2cc(S(C)(=O)=O)cc3c2NC(C)(C)C(=O)N3)c2cc[nH]c2c1=O [Example 58, 3,3-dimethyl-5-(6-methyl-7-oxo-6,7-dihydro-1H-pyrrolo[2,3-c]pyridin-4-yl)-7-(methylsulfonyl)-3,4-dihydroquinoxalin-2(1H)-one] | ≤ 1000 nM
Cn1cc(-c2cc(S(C)(=O)=O)cc3c2NC2(CCCC2)C(=O)N3)c2cc[nH]c2c1=O [Example 59, 8′-(6-methyl-7-oxo-6,7-dihydro-1H-pyrrolo[2,3-c]pyridin-4-yl)-6′-(methylsulfonyl)-1′,4′-dihydro-3′H-spiro[cyclopentane-1,2′-quinoxalin]-3′-one] | ≤ 1000 nM
CC(C)[C@@H]1Nc2c(cc(S(C)(=O)=O)cc2-c2cn(C)c(=O)c3[nH]ccc23)NC1=O [Example 60, (3S)-3-isopropyl-5-(6-methyl-7-oxo-6,7-dihydro-1H-pyrrolo[2,3-c]pyridin-4-yl)-7-(methylsulfonyl)-3,4-dihydroquinoxalin-2(1H)-one] | ≤ 1000 nM
CC(C)[C@H]1Nc2c(cc(S(C)(=O)=O)cc2-c2cn(C)c(=O)c3[nH]ccc23)NC1=O [Example 61, (3R)-3-isopropyl-5-(6-methyl-7-oxo-6,7-dihydro-1H-pyrrolo[2,3-c]pyridin-4-yl)-7-(methylsulfonyl)-3,4-dihydroquinoxalin-2(1H)-one] | ≤ 1000 nM
Cn1cc(-c2cc(S(C)(=O)=O)cc3c2NC2(CCC2)C(=O)N3)c2cc[nH]c2c1=O [Example 62, 8′-(6-methyl-7-oxo-6,7-dihydro-1H-pyrrolo[2,3-c]pyridin-4-yl)-6′-(methylsulfonyl)-1′,4′-dihydro-3′H-spiro[cyclobutane-1,2′-quinoxalin]-3′-one] | ≤ 1000 nM
CN1C(=O)C2(CC2)Oc2c(-c3cn(C)c(=O)c4[nH]ccc34)cc(S(C)(=O)=O)cc21 [Example 63, 4-methyl-8-(6-methyl-7-oxo-6,7-dihydro-1H-pyrrolo[2,3-c]pyridin-4-yl)-6-(methylsulfonyl)spiro[1,4-benzoxazine-2,1′-cyclopropan]-3(4H)-one] | ≤ 1000 nM
Cn1cc(-c2cc(S(C)(=O)=O)cc3c2NC2(CCCCC2)C(=O)N3)c2cc[nH]c2c1=O [Example 64, 8′-(6-methyl-7-oxo-6,7-dihydro-1H-pyrrolo[2,3-c]pyridin-4-yl)-6′-(methylsulfonyl)-1′,4′-dihydro-3′H-spiro[cyclohexane-1,2′-quinoxalin]-3′-one] | ≤ 1000 nM
Cn1cc(-c2cc(S(C)(=O)=O)cc3c2OC2(CC2)C(=O)N3)c2cn[nH]c2c1=O [Example 65, 8-(6-methyl-7-oxo-6,7-dihydro-1H-pyrazolo[3,4-c]pyridin-4-yl)-6-(methylsulfonyl)spiro[1,4-benzoxazine-2,1′-cyclopropan]-3(4H)-one] | ≤ 1000 nM
CN1C(=O)C2(CC2)Oc2c(-c3cn(C)c(=O)c4[nH]ncc34)cc(S(C)(=O)=O)cc21 [Example 66, 4-methyl-8-(6-methyl-7-oxo-6,7-dihydro-1H-pyrazolo[3,4-c]pyridin-4-yl)-6-(methylsulfonyl)spiro[1,4-benzoxazine-2,1′-cyclopropan]-3(4H)-one] | ≤ 1000 nM
CC(C)C1Oc2c(cc(S(=O)(=O)N(C)C)cc2-c2cn(C)c(=O)c3[nH]ccc23)NC1=O (stereo not shown) [Example 67, 2-isopropyl-N,N-dimethyl-8-(6-methyl-7-oxo-6,7-dihydro-1H-pyrrolo[2,3-c]pyridin-4-yl)-3-oxo-3,4-dihydro-2H-1,4-benzoxazine-6-sulfonamide] | ≤ 1000 nM
CNS(=O)(=O)c1cc2c(c(-c3cn(C)c(=O)c4[nH]ccc34)c1)OC(C(C)C)C(=O)N2 (stereo not shown) [Example 68, 2-isopropyl-N-methyl-8-(6-methyl-7-oxo-6,7-dihydro-1H-pyrrolo[2,3-c]pyridin-4-yl)-3-oxo-3,4-dihydro-2H-1,4-benzoxazine-6-sulfonamide] | ≤ 1000 nM
CN1C(=O)C(C)(C)Oc2c(-c3cn(C)c(=O)c4[nH]ccc34)cc(S(=O)(=O)N(C)C)cc21 [Example 69, N,N,2,2,4-pentamethyl-8-(6-methyl-7-oxo-6,7-dihydro-1H-pyrrolo[2,3-c]pyridin-4-yl)-3-oxo-3,4-dihydro-2H-1,4-benzoxazine-6-sulfonamide] | ≤ 1000 nM
CN(C)S(=O)(=O)c1cc2c(c(-c3cn(C)c(=O)c4[nH]ccc34)c1)OC(C)(C)C(=O)N2 [Example 70, N,N,2,2-tetramethyl-8-(6-methyl-7-oxo-6,7-dihydro-1H-pyrrolo[2,3-c]pyridin-4-yl)-3-oxo-3,4-dihydro-2H-1,4-benzoxazine-6-sulfonamide] | ≤ 1000 nM
CC(C)C1Oc2c(-c3cn(C)c(=O)c4[nH]ccc34)cc(S(=O)(=O)N(C)C)cc2N(C)C1=O (stereo not shown) [Example 71, 2-isopropyl-N,N,4-trimethyl-8-(6-methyl-7-oxo-6,7-dihydro-1H-pyrrolo[2,3-c]pyridin-4-yl)-3-oxo-3,4-dihydro-2H-1,4-benzoxazine-6-sulfonamide] | ≤ 1000 nM
Cn1cc(-c2cc(S(=O)(=O)N3CCCCC3)cc3c2OC(C)(C)C(=O)N3)c2cc[nH]c2c1=O [Example 72, 2,2-dimethyl-8-(6-methyl-7-oxo-6,7-dihydro-1H-pyrrolo[2,3-c]pyridin-4-yl)-6-(piperidin-1-ylsulfonyl)-2H-1,4-benzoxazin-3(4H)-one] | ≤ 1000 nM
CN1C(=O)C(C)(C)Oc2c(-c3cn(C)c(=O)c4[nH]ccc34)cc(S(=O)(=O)N3CCCCC3)cc21 [Example 73, 2,2,4-trimethyl-8-(6-methyl-7-oxo-6,7-dihydro-1H-pyrrolo[2,3-c]pyridin-4-yl)-6-(piperidin-1-ylsulfonyl)-2H-1,4-benzoxazin-3(4H)-one] | ≤ 1000 nM
CC(C)NS(=O)(=O)c1cc2c(c(-c3cn(C)c(=O)c4[nH]ccc34)c1)OC(C)(C)C(=O)N2 [Example 74, N-isopropyl-2,2-dimethyl-8-(6-methyl-7-oxo-6,7-dihydro-1H-pyrrolo[2,3-c]pyridin-4-yl)-3-oxo-3,4-dihydro-2H-1,4-benzoxazine-6-sulfonamide] | ≤ 1000 nM
CN1C(=O)C(C)(C)Oc2c(-c3cn(C)c(=O)c4[nH]ccc34)cc(S(C)(=O)=O)cc21 [Example 75, 2,2,4-trimethyl-8-(6-methyl-7-oxo-6,7-dihydro-1H-pyrrolo[2,3-c]pyridin-4-yl)-6-(methylsulfonyl)-2H-1,4-benzoxazin-3(4H)-one] | ≤ 1000 nM
CCS(=O)(=O)c1cc(-c2cn(C)c(=O)c3[nH]ccc23)c2c(c1)N(C)C(=O)C(C)(C)O2 [Example 76, 6-(ethylsulfonyl)-2,2,4-trimethyl-8-(6-methyl-7-oxo-6,7-dihydro-1H-pyrrolo[2,3-c]pyridin-4-yl)-2H-1,4-benzoxazin-3(4H)-one] | ≤ 1000 nM
CC(C)S(=O)(=O)c1cc(-c2cn(C)c(=O)c3[nH]ccc23)c2c(c1)N(C)C(=O)C(C)(C)O2 [Example 77, 6-(isopropylsulfonyl)-2,2,4-trimethyl-8-(6-methyl-7-oxo-6,7-dihydro-1H-pyrrolo[2,3-c]pyridin-4-yl)-2H-1,4-benzoxazin-3(4H)-one] | ≤ 1000 nM
CCS(=O)(=O)c1cc2c(c(-c3cn(C)c(=O)c4[nH]ccc34)c1)OC(C)(C)C(=O)N2 [Example 78, 6-(ethylsulfonyl)-2,2-dimethyl-8-(6-methyl-7-oxo-6,7-dihydro-1H-pyrrolo[2,3-c]pyridin-4-yl)-2H-1,4-benzoxazin-3(4H)-one] | ≤ 1000 nM
CC(C)S(=O)(=O)c1cc2c(c(-c3cn(C)c(=O)c4[nH]ccc34)c1)OC(C)(C)C(=O)N2 [Example 79, 6-(isopropylsulfonyl)-2,2-dimethyl-8-(6-methyl-7-oxo-6,7-dihydro-1H-pyrrolo[2,3-c]pyridin-4-yl)-2H-1,4-benzoxazin-3(4H)-one] | ≤ 1000 nM
CC(O)c1cc2c(c(-c3cn(C)c(=O)c4[nH]ccc34)c1)OC(C)(C)C(=O)N2 (stereo not shown) [Example 81, 6-(1-hydroxyethyl)-2,2-dimethyl-8-(6-methyl-7-oxo-6,7-dihydro-1H-pyrrolo[2,3-c]pyridin-4-yl)-2H-1,4-benzoxazin-3(4H)-one] | ≤ 1000 nM
CC(O)c1cc(-c2cn(C)c(=O)c3[nH]ccc23)c2c(c1)N(C)C(=O)C(C)(C)O2 (stereo not shown) [Example 83, 6-(1-hydroxyethyl)-2,2,4-trimethyl-8-(6-methyl-7-oxo-6,7-dihydro-1H-pyrrolo[2,3-c]pyridin-4-yl)-2H-1,4-benzoxazin-3(4H)-one] | ≤ 1000 nM
